Target: MT1-MMP (Homo sapiens, UniProt P50281)
Assay: FRET triple-helical peptide
Assay type: biochemical

IC50: 19 ± 3 nM
SMILES: CNC(=O)[C@@H](NC(=O)[C@H](CC(C)C)[C@H](O)C(=O)NO)C(C)(C)C [marimastat]

From publication PMC6536371 (Chemical biology & drug design, 2018)
